The values that follow come from patent publication US8975401B2, “Quinazoline based EGFR inhibitors containing a zinc binding moiety” (Curis, Inc., priority 2006, dated 2015).

This assay has as its target T1, human EGFR (His672-Ala1210) (Homo sapiens, UniProt P00533).
T1 construct: human EGFR (His672-Ala1210); GST (N); purchased Cell Signaling Technologies; host or cells: baculovirus expression system
Kind of assay: HTScan EGF Receptor Kinase Assay. In kind it is biochemical. The method, then:
The ability of compounds to inhibit receptor kinase (EGFR) activity was assayed using HTSCAN™ EGF Receptor Kinase Assay Kits (Cell Signaling Technologies, Danvers, Mass.). […] The protein was purified by one-step affinity chromatography using glutathione-agarose.
Immediately transfer enzyme from −80° C. to ice. Allowed enzyme to thaw on ice. […] Returned immediately to ice. […] Incubated reaction plate at room temperature for 30 minutes. […] Added 100 μl/well primary antibody. Incubated at room temperature for 60 minutes. […] Added 100 μl/well diluted antibody. Incubated at room temperature for 30 minutes. […] Incubated at room temperature for 5 minutes.

T1 sequence (P00533 672-1210): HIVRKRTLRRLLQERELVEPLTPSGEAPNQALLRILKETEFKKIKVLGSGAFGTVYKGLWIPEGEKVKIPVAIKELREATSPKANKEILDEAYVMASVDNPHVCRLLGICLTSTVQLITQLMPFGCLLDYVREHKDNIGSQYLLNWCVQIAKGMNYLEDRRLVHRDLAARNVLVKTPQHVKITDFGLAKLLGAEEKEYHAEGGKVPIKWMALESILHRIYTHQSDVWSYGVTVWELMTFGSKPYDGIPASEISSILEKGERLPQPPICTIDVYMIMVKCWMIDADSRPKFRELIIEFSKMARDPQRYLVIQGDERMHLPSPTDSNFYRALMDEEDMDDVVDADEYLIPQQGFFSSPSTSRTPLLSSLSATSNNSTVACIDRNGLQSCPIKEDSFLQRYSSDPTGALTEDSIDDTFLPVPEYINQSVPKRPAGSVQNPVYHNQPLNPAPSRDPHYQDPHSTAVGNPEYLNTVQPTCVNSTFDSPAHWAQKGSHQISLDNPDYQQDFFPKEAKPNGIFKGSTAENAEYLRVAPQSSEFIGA

Turning to `COc1cc2ncnc(Nc3ccc(F)c(Cl)c3)c2cc1OCC(=O)NO` [Compound 1, 2-(4-(3-Chloro-4-fluorophenylamino)-7-methoxyquinazolin-6-yloxy)-N-hydroxyacetamide], the IC50 was under 100 nM.
The compound `COc1cc2ncnc(Nc3ccc(F)c(Cl)c3)c2cc1OCCC(=O)NO` [Compound 2] had an IC50 of under 100 nM.
`COc1cc2ncnc(Nc3ccc(F)c(Cl)c3)c2cc1OCCCC(=O)NO` [Compound 3, 4-(4-(3-Chloro-4-fluorophenylamino)-7-methoxyquinazolin-6-yloxy)-N-hydroxybutanamide] yielded an IC50 of under 100 nM.
With `COc1cc2ncnc(Nc3ccc(F)c(Cl)c3)c2cc1OCCCCC(=O)NO` [Compound 4], the IC50 is under 100 nM.
Under `COc1cc2ncnc(Nc3ccc(F)c(Cl)c3)c2cc1OCCCCCC(=O)NO` [Compound 5] stands under 100 nM; under `C#Cc1cccc(Nc2ncnc3cc(OC)c(OCC(=O)NO)cc23)c1` [Compound 7, 2-(4-(3-ethynylphenylamino)-7-methoxyquinazolin-6-yloxy)-N-hydroxyacetamide], under 100 nM; under `C#Cc1cccc(Nc2ncnc3cc(OC)c(OCCC(=O)NO)cc23)c1` [Compound 8], under 100 nM.
On to `C#Cc1cccc(Nc2ncnc3cc(OC)c(OCCCC(=O)NO)cc23)c1` [Compound 9, 4-(4-(3-ethynylphenylamino)-7-methoxyquinazolin-6-yloxy)-N-hydroxybutanamide], for which the IC50 was under 100 nM.
Turning to `C#Cc1cccc(Nc2ncnc3cc(OC)c(OCCCCCC(=O)NO)cc23)c1` [Compound 11, 6-(4-(3-ethynylphenylamino)-7-methoxyquinazolin-6-yloxy)-N-hydroxyhexanamide], the 50% inhibitory concentration (IC50) is under 100 nM.
Compound `O=C(COc1ccc2ncnc(Nc3ccc(F)c(Cl)c3)c2c1)NO` [Compound 13, 2-(4-(3-chloro-4-fluorophenylamino)quinazolin-6-yloxy)-N-hydroxyacetamide] gave a 50% inhibitory concentration (IC50) of under 100 nM.
As for `O=C(CCOc1ccc2ncnc(Nc3ccc(F)c(Cl)c3)c2c1)NO` [Compound 14], the IC50 is under 100 nM.
As for `O=C(CCCCOc1ccc2ncnc(Nc3ccc(F)c(Cl)c3)c2c1)NO` [Compound 16, 5-(4-(3-chloro-4-fluorophenylamino)quinazolin-6-yloxy)-N-hydroxypentanamide], the IC50 was under 100 nM.
The compound `O=C(CCCCCOc1ccc2ncnc(Nc3ccc(F)c(Cl)c3)c2c1)NO` [Compound 17, 6-(4-(3-chloro-4-fluorophenylamino)quinazolin-6-yloxy)-N-hydroxy hexanamide] displayed an IC50 of under 100 nM.
Take `O=C(CCCCCCOc1ccc2ncnc(Nc3ccc(F)c(Cl)c3)c2c1)NO` [Compound 18, 7-(4-(3-chloro-4-fluorophenylamino)quinazolin-6-yloxy)-N-hydroxyheptanamide]: the IC50 is under 100 nM.
As for `C#Cc1cccc(Nc2ncnc3ccc(OCC(=O)NO)cc23)c1` [Compound 19, 2-(4-(3-ethynylphenylamino)quinazolin-6-yloxy)-N-hydroxyacetamide], the half-inhibitory concentration (IC50) was under 100 nM.
As to `C#Cc1cccc(Nc2ncnc3ccc(OCCCC(=O)NO)cc23)c1` [Compound 21, 4-(4-(3-ethynylphenylamino)quinazolin-6-yloxy)-N-hydroxybutanamide], the half-maximal inhibitory concentration (IC50) lay within 100 to 1000 nM.
With `C#Cc1cccc(Nc2ncnc3ccc(OCCCCC(=O)NO)cc23)c1` [Compound 22], the IC50 was under 100 nM.
`C#Cc1cccc(Nc2ncnc3ccc(OCCCCCC(=O)NO)cc23)c1` [Compound 23, 6-(4-(3-ethynylphenylamino)quinazolin-6-yloxy)-N-hydroxyhexanamide] showed an IC50 of 100 to 1000 nM.
As to `C#Cc1cccc(Nc2ncnc3ccc(OCCCCCCC(=O)NO)cc23)c1` [Compound 24, 7-(4-(3-ethynylphenylamino)quinazolin-6-yloxy)-N-hydroxyheptanamide], the half-inhibitory concentration (IC50) lay in the range of 100 to 1000 nM.
`COCCOc1cc2ncnc(Nc3ccc(F)c(Cl)c3)c2cc1OCCCCCCC(=O)NO` [Compound 30, 7-(4-(3-Chloro-4-fluorophenylamino)-7-(2-methoxyethoxy)quinazolin-6-yloxy)-N-hydroxyheptanamide] showed a half-inhibitory concentration (IC50) of under 100 nM.
As to `C#Cc1cccc(Nc2ncnc3cc(OCCOC)c(OCCCCCCC(=O)NO)cc23)c1` [Compound 36, 7-(4-(3-Ethynylphenylamino)-7-(2-methoxyethoxy)quinazolin-6-yloxy)-N-hydroxyheptanamide], the IC50 is under 100 nM.
The compound `COc1cc2ncnc(Nc3ccc(F)c(Cl)c3)c2cc1NC(=O)CCCC(=O)NO` [Compound 38, N^1-(4-(3-chloro-4-fluorophenylamino)-7-methoxyquinazolin-6-yl)-N^5-hydroxyglutaramide] yielded an IC50 of under 100 nM.
Next, `COc1cc2ncnc(Nc3ccc(F)c(Cl)c3)c2cc1NC(=O)CCCCCCC(=O)NO` [Compound 40, N^1-(4-(3-chloro-4-fluorophenylamino)-7-methoxyquinazolin-6-yl)-N^8-hydroxyoctanediamide]: under 100 nM; `C#Cc1cccc(Nc2ncnc3cc(OC)c(NC(=O)CCCC(=O)NO)cc23)c1` [Compound 42, N^1-(4-(3-ethynylphenylamino)-7-methoxyquinazolin-6-yl)-N^5-hydroxyglutaramide]: under 100 nM.
Next, `C#Cc1cccc(Nc2ncnc3cc(OC)c(NC(=O)CCCCC(=O)NO)cc23)c1` [Compound 43, N^1-(4-(3-ethynylphenylamino)-7-methoxyquinazolin-6-yl)-N^6-hydroxyadipamide]: under 100 nM; `C#Cc1cccc(Nc2ncnc3cc(OC)c(NC(=O)CCCCCCC(=O)NO)cc23)c1` [Compound 44, N^1-(4-(3-ethynylphenylamino)-7-methoxyquinazolin-6-yl)-N^8-hydroxyoctanediamide]: under 100 nM; `Nc1cc(Br)ccc1NC(=O)COc1ccc2ncnc(Nc3ccc(F)c(Cl)c3)c2c1` [Compound 45]: 100 to 1000 nM.
For `C[C@@H](Nc1ncnc2ccc(OCCCCCC(=O)NO)cc12)c1ccccc1` [Compound 50], the IC50 is 100 to 1000 nM.
Regarding `COc1cc2ncnc(Nc3ccc(F)c(Cl)c3)c2cc1OCCOc1ccc(/C=C/C(=O)NO)cc1` [Compound 66, (E)-3-(4-(2-(4-(3-chloro-4-fluorophenylamino)-7-methoxyquinazolin-6-yloxy)ethoxy)phenyl)-N-hydroxyacrylamide], the IC50 was under 100 nM.
`COCCOc1cc2ncnc(Nc3ccc(F)c(Cl)c3)c2cc1NC(=O)CCCC(=O)NO` [Compound 68, N^1-(4-(3-chloro-4-fluorophenylamino)-7-(2-methoxyethoxy)quinazolin-6-yl)-N^5-hydroxyglutaramide]: the IC50 was under 100 nM.
As to `COCCOc1cc2ncnc(Nc3ccc(F)c(Cl)c3)c2cc1NC(=O)CCCCC(=O)NO` [Compound 69, N^1-(4-(3-chloro-4-fluorophenylamino)-7-(2-methoxyethoxy)quinazolin-6-yl)-N^6-hydroxyadipamide], the concentration for half-maximal inhibition (IC50) was under 100 nM.
Compound `C#Cc1cc(Nc2ncnc3cc(OC)c(OCCCCCCC(=O)NO)cc23)ccc1F` [Compound 75, 7-(4-(3-ethynyl-4-fluorophenylamino)-7-methoxyquinazolin-6-yloxy)-N-hydroxyheptanamide] showed an IC50 of under 100 nM.
Take `C#Cc1cc(Nc2ncnc3cc(OCCOC)c(OCCCCCCC(=O)NO)cc23)ccc1F` [Compound 76]: the concentration for half-maximal inhibition (IC50) is under 100 nM.
Next, `COc1cc2ncnc(N[C@H](C)c3ccccc3)c2cc1OCCCCCC(=O)NO` [Compound 77, (R)—N-hydroxy-6-(7-methoxy-4-(1-phenylethylamino)quinazolin-6-yloxy)-hexanamide]: under 100 nM; `COc1cc2ncnc(N[C@H](C)c3ccc(F)cc3)c2cc1OCCCCCCC(=O)NO` [Compound 81, (R)-7-(4-(1-(4-fluorophenyl)ethylamino)-7-methoxyquinazolin-6-yloxy)-N-hydroxyheptanamide]: 100 to 1000 nM; `COc1cc2ncnc(N[C@H](C)c3ccc(Cl)cc3)c2cc1OCCCCCCC(=O)NO` [Compound 82, (R)-7-(4-(1-(4-chlorophenyl)ethylamino)-7-methoxyquinazolin-6-yloxy)-N-hydroxyheptanamide]: 100 to 1000 nM.
As for `COc1ccc([C@@H](C)Nc2ncnc3cc(OC)c(OCCCCCCC(=O)NO)cc23)cc1` [Compound 83, (R)—N-hydroxy-7-(7-methoxy-4-(1-(4-methoxyphenyl)ethylamino)quinazolin-6-yloxy)-heptanamide], the 50% inhibitory concentration (IC50) is over 10000 nM.
`COc1cc2ncnc(NCCc3ccccc3)c2cc1OCCCCCCC(=O)NO` [Compound 84]: the IC50 lay within 100 to 1000 nM.
Consider `COc1cc2ncnc(NCc3ccc(F)c(F)c3)c2cc1OCCCCCCC(=O)NO` [Compound 87, 7-(4-(3,4-difluorobenzylamino)-7-methoxyquinazolin-6-yloxy)-N-hydroxyheptanamide], for which the IC50 was 100 to 1000 nM.
Next, `COc1cc2ncnc(NCc3ccc(F)c(Cl)c3)c2cc1OCCCCCCC(=O)NO` [Compound 88, 7-(4-(3-chloro-4-fluorobenzylamino)-7-methoxyquinazolin-6-yloxy)-N-hydroxyheptanamide]: under 100 nM; `COc1cc2ncnc(NCc3cccc(Br)c3)c2cc1OCCCCCCC(=O)NO` [Compound 89, 7-(4-(3-bromobenzylamino)-7-methoxyquinazolin-6-yloxy)-N-hydroxyheptanamide]: 100 to 1000 nM; `COc1cc2ncnc(Nc3ccc(F)c(Cl)c3)c2cc1OCCOc1ccc(CC(=O)NO)cc1` [Compound 91]: under 100 nM.
Consider `COc1cc2ncnc(Nc3ccc(F)c(Cl)c3)c2cc1NC(=O)Nc1ccc(C(=O)NO)cc1` [Compound 93], for which the IC50 was under 100 nM.
Take `COc1cc2ncnc(Nc3ccc(F)c(Cl)c3)c2cc1OCCCCCCC(=O)N(C)O` [Compound 94]: the concentration for half-maximal inhibition (IC50) is under 100 nM.
